Patent US4570013A, “Biphenylylalkanoic acid derivatives, methods of preparation and pharmaceutical compositions therefrom” (Dr. L. Zambeletti S.p.A., priority 1983, dated 1986)
Read-outs that look alike come from different tables or passages of the source.

How the values were obtained:
[1] = tested on: oedema induced in the rats' paw by intradermic injection of carrageenin; assay: carrageenin-induced paw oedema (method of Winter), antiinflammatory activity; type: in vivo; details: Rattus norvegicus, po, os, read-out: Antiinflammatory activity (oedema caused by carrageenin in rats) ED50
[2] = tested on: writhings caused by 2-phenylparabenzoquinone in mice; assay: writhing test (method of Siegmund), 2-phenylparabenzoquinone, analgesic activity; type: in vivo, Swiss mice; details: for ED50: Mus musculus, po; for Contorsions % (change vs controls) / No. Contorsions: orally at ED50: biphenylylacetic acid 12, Ia 32 mg/kg
From the text: The analgesic activity has been studied according to the method described by Siegmund (E. Siegmund et al, Proc. Soc. Exptl. Biol. Med., 95, 729 (1957)), according to which the algogenic stimulus consists of the intraperitoneal injection of 2-phenylparabenzoquinone and the algesia manifests itself in repeated abdominal contractions with an extension of the rear limbs and contorsions of the body ("writhing test").

[3] = tested on: Hyperthermia caused by brewer's yeast in rats; assay: brewer's yeast hyperthermia (method of C. Winter), antipyretic activity; type: in vivo; details: for ED50: Rattus norvegicus, po, rats, os, read-out: Antipyretic activity (temperature increase by brewer's yeast, in rats) ED50
From the text: The antipyretic activity has been studied according to the method of C. Winter, Toxicol. and Appl. Pharmacol., 5, 247 (1963), in rats, by determining the ability of the substance to reduce the increase of body temperature caused by the subcutaneous administration of brewer's yeast.

[4] = gastrolesive action after single doses; details: rat, in vivo, po
[5] = in vivo; details: rat, po

## COc1ccc2cc(C(C)C(=O)O)ccc2c1 (stereo not drawn) [Naproxen, 6-methoxy-α-methyl-2-naphthaleneacetic acid, reference compound]
[1]
  ED50: 24 mg/kg
[2]; read-out: Analgesic activity (against pain caused by 2-phenyl-p-benzo-quinone in mice) ED50
  ED50: 20 mg/kg
[3]
  ED50: 112 mg/kg
[4]
  TD50: 17 mg/kg

## O=C(O)Cc1ccc(-c2ccccc2)cc1 [reference compound]
[1]
  ED50: 10.9 mg/kg
[2]; 5 minutes
  Contorsions % (change vs controls): -27%
  No. Contorsions: 33.4 ± 3.0
[2]; 15 minutes
  Contorsions % (change vs controls): -41%
  No. Contorsions: 31.0 ± 4.7
[2]; 30 minutes
  Contorsions % (change vs controls): -57%
  No. Contorsions: 21.3 ± 2.6
[2]; 1 hour
  Contorsions % (change vs controls): -49%
  No. Contorsions: 25.6 ± 2.9
[2]; 2 hours
  Contorsions % (change vs controls): -42%
  No. Contorsions: 25.1 ± 2.8
[2]; 3 hours
  Contorsions % (change vs controls): -47%
  No. Contorsions: 26.0 ± 4.0
[2]; 4 hours
  Contorsions % (change vs controls): -28%
  No. Contorsions: 34.9 ± 3.6
[2]; 5 hours
  Contorsions % (change vs controls): -1%
  No. Contorsions: 45.0 ± 2.3
[2]; mice, orally, read-out: ED50, analgesic activity (writhing test)
  ED50: 12 mg/kg
[3]; 3 mg/kg os, 1 h
  Temperature change Δt after administration of the substance: -0.48 °C
[3]; 3 mg/kg os, 2 h
  Temperature after administration of the substance, t: 37.81±0.05 °C
  Temperature change Δt after administration of the substance: -0.65 °C
[3]; 3 mg/kg os, 3 h
  P/S, ratio of protected animals with respect to total screened animals: 2/10
  Temperature after administration of the substance, t: 37.69±0.08 °C
  Temperature change Δt after administration of the substance: -0.70 °C
[3]; 3 mg/kg os, 4 h
  Temperature after administration of the substance, t: 37.89±0.08 °C
  Temperature change Δt after administration of the substance: -0.41 °C
[3]; 3 mg/kg os, 5 h
  Temperature after administration of the substance, t: 38.12±0.13 °C
  Temperature change Δt after administration of the substance: -0.14 °C
[3]; 3 mg/kg os, 6 h
  Temperature after administration of the substance, t: 38.19±0.11 °C
  Temperature change Δt after administration of the substance: -0.05 °C
[3]; 6 mg/kg os, 1 h
  Temperature after administration of the substance, t: 37.80±0.09 °C
  Temperature change Δt after administration of the substance: -0.84 °C
[3]; 6 mg/kg os, 2 h
  Temperature after administration of the substance, t: 37.46±0.09 °C
  Temperature change Δt after administration of the substance: -1.00 °C
[3]; 6 mg/kg os, 3 h
  P/S, ratio of protected animals with respect to total screened animals: 5/10
  Temperature after administration of the substance, t: 37.28±0.07 °C
  Temperature change Δt after administration of the substance: -1.11 °C
[3]; 6 mg/kg os, 4 h
  Temperature after administration of the substance, t: 37.40±0.09 °C
  Temperature change Δt after administration of the substance: -0.90 °C
[3]; 6 mg/kg os, 5 h
  Temperature after administration of the substance, t: 37.65±0.10 °C
  Temperature change Δt after administration of the substance: -0.63 °C
[3]; 6 mg/kg os, 6 h
  Temperature after administration of the substance, t: 37.81±0.12 °C
  Temperature change Δt after administration of the substance: -0.37 °C
[3]; 12 mg/kg os, 1 h
  Temperature after administration of the substance, t: 37.71±0.08 °C
  Temperature change Δt after administration of the substance: -0.93 °C
[3]; 12 mg/kg os, 2 h
  Temperature after administration of the substance, t: 37.33±0.06 °C
  Temperature change Δt after administration of the substance: -1.13 °C
[3]; 12 mg/kg os, 3 h
  P/S, ratio of protected animals with respect to total screened animals: 8/10
  Temperature after administration of the substance, t: 37.09±0.07 °C
  Temperature change Δt after administration of the substance: -1.30 °C
[3]; 12 mg/kg os, 4 h
  Temperature after administration of the substance, t: 37.18±0.07 °C
  Temperature change Δt after administration of the substance: -1.12 °C
[3]; 12 mg/kg os, 5 h
  Temperature after administration of the substance, t: 37.43±0.08 °C
  Temperature change Δt after administration of the substance: -0.93 °C
[3]; 12 mg/kg os, 6 h
  Temperature after administration of the substance, t: 37.58 °C
  Temperature change Δt after administration of the substance: -0.66 °C
[3]
  ED50: 6 mg/kg
[5]
  TD50: 16.5 mg/kg
